Data published in US7109193B2, “Tricyclic diazepines tocolytic oxytocin receptor antagonists” (Wyeth, priority 2001, dated 2006).

Biological target: T1, human vasopressin V1a receptor subtype (Homo sapiens, UniProt P37288)
T1 construct: host or cells: CHO cells (pZeoSV vector for the Thibonnier line)
Experiment: Vasopressin binding in Chinese Hamster Ovary cell membranes expressing human vasopressin V1a subtype receptors
Settings: 100 nM, CHO cell membranes, [3H]Manning ligand, values without parentheses
In short: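 Displacement of [3H]Manning ligand (8 nM working solution) from human V1a receptors in CHO cell membranes, 25–50 μg protein per well. Incubation ran 60 min at room temperature in 50 mM Tris-HCl pH 7.4 with protease inhibitors, followed by filtration and scintillation counting. Results are given as IC50 or percent inhibition.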

T1 sequence (P37288 whole entry): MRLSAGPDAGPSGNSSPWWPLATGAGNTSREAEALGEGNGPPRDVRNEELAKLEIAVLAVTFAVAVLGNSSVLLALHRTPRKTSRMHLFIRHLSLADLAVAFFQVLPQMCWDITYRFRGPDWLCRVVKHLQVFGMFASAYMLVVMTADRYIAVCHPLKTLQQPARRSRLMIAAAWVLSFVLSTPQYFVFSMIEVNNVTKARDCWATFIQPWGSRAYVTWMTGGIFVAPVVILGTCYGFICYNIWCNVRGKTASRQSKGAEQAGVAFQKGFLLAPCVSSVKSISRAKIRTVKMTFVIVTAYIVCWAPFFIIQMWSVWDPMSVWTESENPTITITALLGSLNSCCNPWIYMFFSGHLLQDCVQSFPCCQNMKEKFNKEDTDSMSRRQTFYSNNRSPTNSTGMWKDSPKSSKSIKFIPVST

Compound	inhibition at 0.1 µM [%]	V1a % inhibition @ 100 nM [%]
Cc1ccccc1-c1ccc(C(=O)N2Cc3ccc(C(=O)N4CC[C@@H](N(C)C)C4)n3Cc3ccccc32)cc1 [Example 280, [(3R)-3-(Dimethylamino)pyrrolidinyl]{10-[(2′-methyl[1,1′-biphenyl]-4-yl)carbonyl]-10,11-dihydro-5H-pyrrolo[2,1-c][1,4]benzodiazepin-3-yl}methanone]		77
Cc1ccccc1-c1ccc(C(=O)N2Cc3ccc(C(=O)N4CC[C@@H](N(C)C)C4)n3Cc3ccccc32)cc1C [Example 274, [(3R)-3-(Dimethylamino)pyrrolidinyl]{10-[(2,2′-dimethyl[1,1′-biphenyl]-4-yl)carbonyl]-10,11-dihydro-5H-pyrrolo[2,1-c][1,4]benzodiazepin-3-yl}methanone]		90
COc1ccccc1-c1ccc(C(=O)N2Cc3ccc(C(=O)N4CC[C@@H](N(C)C)C4)n3Cc3ccccc32)cc1OC [Example 282, {10-[(2,2′-Dimethoxy[1,1′-biphenyl]-4-yl)carbonyl]-10,11-dihydro-5H-pyrrolo[2,1-c][1,4]benzodiazepin-3-yl][(3R)-3-(dimethylamino)pyrrolidinyl]methanone]		1
COc1cc(C(=O)N2Cc3ccc(C(=O)N4CCC[C@H]4CN4CCCC4)n3Cc3ccccc32)ccc1-c1cccc2ccccc12 [Example 262, {10-[3-Methoxy-4-(1-naphthyl)benzoyl]-10,11-dihydro-5H-pyrrolo[2,1-c][1,4]benzodiazepin-3-yl}[(2S)-2-(1-pyrrolidinylmethyl)pyrrolidinyl]methanone]		8
O=C(c1ccc2n1Cc1ccccc1N(C(=O)c1ccc(-c3cccc4ccccc34)cc1Cl)C2)N1CCC(N2CCCCC2)CC1 [Example 121]		0
COc1cc(C(=O)N2Cc3ccc(C(=O)N4CCC[C@H]4CN4CCCC4)n3Cc3ccccc32)ccc1-c1ccccc1Cl [Example 33, {[10-(2-Methoxy)-2′-chloro-[1,1′-biphenyl]-4-yl]carbonyl}-[(2S)-[(2-pyrrolidin-1-yl)methyl]pyrrolidin-1-yl]-10,11-dihydro-5H-pyrrolo[2,1-c][1,4]benzodiazepin-3-yl-methanone]		68
COc1cc(C(=O)N2Cc3ccc(C(=O)N4CCC[C@H]4CN4CCCC4)n3Cc3ccccc32)ccc1-n1c(C)ccc1C [Example 321, {10-[4-(2,5-Dimethyl-1H-pyrrol-1-yl)-3-methoxybenzoyl]-10,11-dihydro-5H-pyrrolo[2,1-c][1,4]benzodiazepin-3-yl}[(2S)-2-(1-pyrrolidinylmethyl)pyrrolidinyl]methanone]		5
{10-[(2,2′-Dimethoxy[1,1′-biphenyl]-4-yl)carbonyl]-10,11-dihydro-5H-pyrrolo[2,1-c][1,4]benzodiazepin-3-yl}(4-isopropyl-1-piperazinyl)methanone [Example 244]		44
COc1cccc(-c2ccc(C(=O)N3Cc4ccc(C(=O)NCCC5CCCN5C)n4Cc4ccccc43)cc2C)c1 (centres unmarked) [Example 164, 10-[(3′-Methoxy-2-methyl[1′1′-biphenyl]-4-yl)carbonyl]-N-[2-(1-methyl-2-pyrrolidinyl)ethyl]-10,11-dihydro-5H-pyrrolo[2,1-c][1,4]benzodiazepine-3-carboxamide]		23
COc1cccc(-c2ccc(C(=O)N3Cc4ccc(C(=O)N5CCC(N6CCCCC6)CC5)n4Cc4ccccc43)cc2OC)c1 [Example 120, {10-[(2,3′-Dimethoxy-[1,1′-biphenyl]-4-yl)carbonyl]-10,11-dihydro-5H-pyrrolo[2,1-c][1,4]benzodiazepin-3-yl}[4-(1-piperidinyl)-1-piperidinyl]methanone]	20	
COc1cc(C(=O)N2Cc3ccc(C(=O)N(C)CCCN(C)C)n3Cc3ccccc32)ccc1-n1c(C)ccc1C [Example 310, N-[3-(Dimethylamino)propyl]-10-[4-(2,5-dimethyl-i H-pyrrol-1-yl)-3-methoxybenzoyl]-N-methyl-10,11-dihydro-5H-pyrrolo[2,1-c][1,4]benzodiazepine-3-carboxamide]		4
COc1cc(C(=O)N2Cc3ccc(C(=O)N4CC[C@@H](N(C)C)C4)n3Cc3ccccc32)ccc1-c1cccc2ccccc12 [Example 276, [(3R)-3-(Dimethylamino)pyrrolidinyl]{10-[3-methoxy-4-(1-naphthyl)benzoyl]-10,11-dihydro-5H-pyrrolo[2,1-c][1,4]benzodiazepin-3-yl}methanone]		4

Now from value to compound, other results behind:

inhibition at 0.1 µM [%]	Compound	V1a % inhibition @ 100 nM [%]
17	COc1cccc(-c2ccc(C(=O)N3Cc4ccc(C(=O)NCCN5CCCCC5)n4Cc4ccccc43)cc2C)c1 [Example 151, 10-[(3′-Methoxy-2-methyl[1,1′-biphenyl]-4-yl)carbonyl]-N-[2-(1-piperidinyl)ethyl]-10,11-dihydro-5H-pyrrolo[2,1-c][1,4]benzodiazepine-3-carboxamide]	
15	COc1ccccc1-c1ccc(C(=O)N2Cc3ccc(C(=O)N(C)CCCN(C)C)n3Cc3ccccc32)cc1OC [Example 107, 10-[(2,2′-Dimethoxy[1,1′-biphenyl]-4-yl)carbonyl]-N-[3-(dimethylamino)propyl]-N-methyl-10,11-dihydro-5H-pyrrolo[2,1-c][1,4]benzodiazepine-3-carboxamide]	
-3	Cc1ccccc1-c1ccc(C(=O)N2Cc3ccc(C(=O)N4CCC(N5CCCC5)CC4)n3Cc3ccccc32)cc1 [Example 141, {10-[(2′-Methyl[1,1′-biphenyl]-4-yl)carbonyl]-10,11-dihydro-5H-pyrrolo[2,1-c][1,4]benzodiazepin-3-yl}[4-(1-pyrrolidinyl)-1-piperidinyl]methanone]	
39	COc1cc(C(=O)N2Cc3ccc(C(=O)NCCN4CCCCC4)n3Cc3ccccc32)ccc1-c1ccccc1C [Example 154, 10-[(2-Methoxy-2′-methyl[1,1′-biphenyl]4-yl)carbonyl]-N-[2-(1-piperidinyl)ethyl]-10,11-dihydro-5H-pyrrolo[2,1-c][1,4]benzodiazepine-3-carboxamide]	
2	COc1ccccc1-c1ccc(C(=O)N2Cc3ccc(C(=O)NCCCn4ccnc4)n3Cc3ccccc32)cc1OC [Example 132, 10-[(2,2′-Dimethoxy[1,1′-biphenyl]-4-yl)carbonyl]-N-[3-(1H-imidazol-1-yl)propyl]-10,11-dihydro-5H-pyrrolo[2,1-c][1,4]benzodiazepine-3-carboxamide]	
8	COc1cc(C(=O)N2Cc3ccc(C(=O)NCCCn4ccnc4)n3Cc3ccccc32)ccc1-c1cccc2ccccc12 [Example 131, N-[3-(1H-Imidazol-1-yl)propyl]-10-[3-methoxy-4-(1-naphthyl)benzoyl]-10,11-dihydro-5H-pyrrolo[2,1-c][1,4]benzodiazepine-3-carboxamide]	
0	COc1cc(-c2ccccc2C)c(Cl)cc1C(=O)N1Cc2ccc(C(=O)NCCN3CCCCC3)n2Cc2ccccc21 [Example 155, 10-[(6-Chloro-3-methoxy-2′-methyl[1,1′-biphenyl]-4-yl)carbonyl]-N-[2-(1-piperidinyl)ethyl]-10,11-dihydro-5H-pyrrolo[2,1-c][1,4]benzodiazepine-3-carboxamide]	
9	COc1ccccc1-c1ccc(C(=O)N2Cc3ccc(C(=O)NCCCn4ccnc4)n3Cc3ccccc32)cc1 [Example 126, N-[3-(1H-Imidazol-1-yl)propyl]-10-[(2′-methoxy[1,1′-biphenyl]-4-yl)carbonyl]-10,11-dihydro-5H-pyrrolo[2,1-c][1,4]benzodiazepine-3-carboxamide]	
-1	COc1cc(C(=O)N2Cc3ccc(C(=O)N4CCC(N5CCCC5)CC4)n3Cc3ccccc32)ccc1-c1cccc2ccccc12 [Example 144, {10-[3-Methoxy-4-(1-naphthyl)benzoyl]-10,11-dihydro-5H-pyrrolo[2,1-c][1,4]benzodiazepin-3-yl}[4-(1-pyrrolidinyl)-1-piperidinyl]methanone]	
16	Cc1ccccc1-c1ccc(C(=O)N2Cc3ccc(C(=O)NCCCn4ccnc4)n3Cc3ccccc32)cc1C [Example 124, 10-[(2,2′-Dimethyl[1,1′-biphenyl]-4-yl)carbonyl]-N-[3-(1H-imidazol-1-yl)propyl]-10,11-dihydro-5H-pyrrolo[2,1-c][1,4]benzodiazepine-3-carboxamide]	
-9	Cc1cc(C(=O)N2Cc3ccc(C(=O)N4CCC(N5CCCC5)CC4)n3Cc3ccccc32)ccc1-c1ccccc1C(F)(F)F [Example 148, (10-{[2-Methyl-2′-(trifluoromethyl)[1,1′-biphenyl]-4-yl]carbonyl}-10,11-dihydro-5H-pyrrolo[2,1-c][1,4]benzodiazepin-3-yl)[4-(1-pyrrolidinyl)-1-piperidinyl]methanone]	
11	Cc1ccccc1-c1ccc(C(=O)N2Cc3ccc(C(=O)N4CCC(N5CCCCC5)CC4)n3Cc3ccccc32)cc1 [Example 115, {10-[(2′-Methyl[1,1′-biphenyl]-4-yl)carbonyl]-10,11-dihydro-5H-pyrrolo[2,1-c][1,4]benzodiazepin-3-yl}[4-(1-piperidinyl)-1-piperidinyl]methanone]	
16	Cc1ccccc1-c1ccc(C(=O)N2Cc3ccc(C(=O)NCCCn4ccnc4)n3Cc3ccccc32)cc1 [Example 127, N-[3-(1H-Imidazol-1-yl)propyl]-10-[(2′-methyl[1,1′-biphenyl]-4-yl)carbonyl]-10,11-dihydro-5H-pyrrolo[2,1-c][1,4]benzodiazepine-3-carboxamide]	
6	COc1cc(-c2ccccc2C)c(Cl)cc1C(=O)N1Cc2ccc(C(=O)NCCCn3ccnc3)n2Cc2ccccc21 [Example 129, 10-[(6-Chloro-3-methoxy-2′-methyl[1,1′-biphenyl]-4-yl)carbonyl]-N-[3-(1H-imidazol-1-yl)propyl]-10,11-dihydro-5H-pyrrolo[2,1-c][1,4]benzodiazepine-3-carboxamide]	
